The NIST ThermoML archive (doi:10.1021/je200903m)
Numbers after ± are expanded uncertainties.

Conditions: Liquid, isochoric method

Compound: CCCCCCn1cc[n+](C)c1.F[B-](F)(F)F [1-hexyl-3-methylimidazolium tetrafluoroborate]
- mass density (219.92 K, 2501.7 kPa): 1205.15 ± 1.3 kg/m3
- mass density (225.14 K, 11244 kPa): 1204.69 ± 1.3 kg/m3
- mass density (230.79 K, 1012.8 kPa): 1196.2 ± 1.3 kg/m3
- mass density (231.39 K, 21744 kPa): 1204.14 ± 1.3 kg/m3
- mass density (236.44 K, 10093 kPa): 1195.71 ± 1.3 kg/m3
- mass density (236.46 K, 30111 kPa): 1203.69 ± 1.3 kg/m3
- mass density (242.31 K, 19417 kPa): 1195.2 ± 1.3 kg/m3
- mass density (243.65 K, 1941.6 kPa): 1186.98 ± 1.3 kg/m3
- mass density (243.68 K, 41792 kPa): 1203.05 ± 1.3 kg/m3
- mass density (248.82 K, 49885 kPa): 1202.6 ± 1.3 kg/m3
- mass density (249.02 K, 10085 kPa): 1186.52 ± 1.3 kg/m3
- mass density (249.02 K, 30013 kPa): 1194.61 ± 1.3 kg/m3
- mass density (255.69 K, 20148 kPa): 1185.95 ± 1.3 kg/m3
- mass density (255.99 K, 40643 kPa): 1194.01 ± 1.3 kg/m3
- mass density (256.48 K, 1742.5 kPa): 1177.35 ± 1.3 kg/m3
- mass density (262.31 K, 10140 kPa): 1176.87 ± 1.3 kg/m3
- mass density (262.31 K, 30102 kPa): 1185.39 ± 1.3 kg/m3
- mass density (263.02 K, 51186 kPa): 1193.4 ± 1.3 kg/m3
- mass density (268.9 K, 59865 kPa): 1192.9 ± 1.3 kg/m3
- mass density (269.12 K, 19855 kPa): 1176.3 ± 1.3 kg/m3
- mass density (269.39 K, 40201 kPa): 1184.79 ± 1.3 kg/m3
- mass density (269.9 K, 2119.2 kPa): 1166.18 ± 1.3 kg/m3
- mass density (275.8 K, 10046 kPa): 1165.7 ± 1.3 kg/m3
- mass density (275.8 K, 29402 kPa): 1175.74 ± 1.3 kg/m3
- mass density (276.43 K, 50285 kPa): 1184.19 ± 1.3 kg/m3
- mass density (283.5 K, 20904 kPa): 1165.06 ± 1.3 kg/m3
- mass density (283.57 K, 60349 kPa): 1183.59 ± 1.3 kg/m3
- mass density (283.61 K, 39900 kPa): 1175.1 ± 1.3 kg/m3
- mass density (284.27 K, 2189.9 kPa): 1156.39 ± 1.2 kg/m3
- mass density (290.66 K, 30442 kPa): 1164.48 ± 1.3 kg/m3
- mass density (290.67 K, 30768 kPa): 1165.27 ± 1.3 kg/m3
- mass density (290.73 K, 10282 kPa): 1155.88 ± 1.2 kg/m3
- mass density (290.73 K, 29904 kPa): 1164.49 ± 1.3 kg/m3
- mass density (290.94 K, 49928 kPa): 1174.49 ± 1.3 kg/m3
- mass density (298.15 K, 104 kPa): 1146.14 ± 1.2 kg/m3
- mass density (298.15 K, 39688 kPa): 1164.06 ± 1.3 kg/m3
- mass density (298.15 K, 40557 kPa): 1164.66 ± 1.3 kg/m3
- mass density (298.17 K, 39707 kPa): 1163.88 ± 1.3 kg/m3
- mass density (298.17 K, 40239 kPa): 1163.87 ± 1.3 kg/m3
- mass density (298.52 K, 20112 kPa): 1155.26 ± 1.2 kg/m3
- mass density (299.11 K, 712.5 kPa): 1145.27 ± 1.2 kg/m3
- mass density (299.38 K, 61164 kPa): 1173.79 ± 1.3 kg/m3
- mass density (305.93 K, 49286 kPa): 1163.44 ± 1.3 kg/m3
- mass density (305.93 K, 49685 kPa): 1163.24 ± 1.3 kg/m3
- mass density (306.82 K, 10007 kPa): 1144.66 ± 1.2 kg/m3
- mass density (306.83 K, 30854 kPa): 1154.59 ± 1.2 kg/m3
- mass density (314.42 K, 60539 kPa): 1162.55 ± 1.3 kg/m3
- mass density (315.25 K, 20171 kPa): 1144 ± 1.2 kg/m3
- mass density (315.38 K, 41468 kPa): 1153.9 ± 1.2 kg/m3
- mass density (315.84 K, 1234.2 kPa): 1133.94 ± 1.2 kg/m3
- mass density (322.71 K, 50376 kPa): 1153.32 ± 1.2 kg/m3
- mass density (323.55 K, 9964.4 kPa): 1133.35 ± 1.2 kg/m3
- mass density (323.55 K, 29837 kPa): 1143.36 ± 1.2 kg/m3
- mass density (330.59 K, 59794 kPa): 1152.68 ± 1.2 kg/m3
- mass density (332.16 K, 39991 kPa): 1142.68 ± 1.2 kg/m3
- mass density (332.36 K, 19953 kPa): 1132.67 ± 1.2 kg/m3
- mass density (333.47 K, 1089.8 kPa): 1121.71 ± 1.2 kg/m3
- mass density (340.92 K, 49956 kPa): 1141.99 ± 1.2 kg/m3
- mass density (341.61 K, 9779.8 kPa): 1121.11 ± 1.2 kg/m3
- mass density (341.63 K, 29941 kPa): 1131.97 ± 1.2 kg/m3
- mass density (349.19 K, 1374.3 kPa): 1111.71 ± 1.2 kg/m3
- mass density (349.88 K, 60027 kPa): 1141.28 ± 1.2 kg/m3
- mass density (350.49 K, 39672 kPa): 1131.28 ± 1.2 kg/m3
- mass density (351.2 K, 20298 kPa): 1120.38 ± 1.2 kg/m3
- mass density (357.12 K, 9595.1 kPa): 1111.13 ± 1.2 kg/m3
- mass density (357.12 K, 26381 kPa): 1119.93 ± 1.2 kg/m3
- mass density (357.12 K, 46792 kPa): 1130.77 ± 1.2 kg/m3

Compound: CCCCCCn1cc[n+](C)c1.O=S(=O)([O-])C(F)(F)F [1-hexyl-3-methylimidazolium trifluoromethanesulfonate]
- mass density (303.14 K, 103.8 kPa): 1234.94 ± 1.4 kg/m3
- mass density (303.15 K, 8671.3 kPa): 1241.37 ± 1.4 kg/m3
- mass density (303.15 K, 9948.5 kPa): 1242.12 ± 1.4 kg/m3
- mass density (303.15 K, 10145 kPa): 1241.33 ± 1.4 kg/m3
- mass density (303.15 K, 18778 kPa): 1246.84 ± 1.4 kg/m3
- mass density (303.15 K, 29540 kPa): 1252.92 ± 1.4 kg/m3
- mass density (303.15 K, 50077 kPa): 1263.74 ± 1.4 kg/m3
- mass density (303.15 K, 50213 kPa): 1263.74 ± 1.4 kg/m3
- mass density (303.16 K, 19876 kPa): 1246.81 ± 1.4 kg/m3
- mass density (303.16 K, 30131 kPa): 1252.9 ± 1.4 kg/m3
- mass density (303.16 K, 40525 kPa): 1258.84 ± 1.4 kg/m3
- mass density (303.16 K, 40749 kPa): 1258.84 ± 1.4 kg/m3
- mass density (303.93 K, 1169.5 kPa): 1236.1 ± 1.4 kg/m3
- mass density (311.1 K, 19363 kPa): 1240.66 ± 1.4 kg/m3
- mass density (311.1 K, 50109 kPa): 1258.15 ± 1.4 kg/m3
- mass density (311.4 K, 59971 kPa): 1263.03 ± 1.4 kg/m3
- mass density (311.64 K, 29371 kPa): 1246.09 ± 1.4 kg/m3
- mass density (312.12 K, 10064 kPa): 1235.43 ± 1.4 kg/m3
- mass density (312.13 K, 19984 kPa): 1241.37 ± 1.4 kg/m3
- mass density (312.35 K, 40711 kPa): 1252.12 ± 1.4 kg/m3
- mass density (312.67 K, 1137.8 kPa): 1229.31 ± 1.3 kg/m3
- mass density (320.01 K, 60231 kPa): 1257.4 ± 1.4 kg/m3
- mass density (320.69 K, 29908 kPa): 1239.86 ± 1.4 kg/m3
- mass density (321.26 K, 40148 kPa): 1245.28 ± 1.4 kg/m3
- mass density (321.32 K, 10225 kPa): 1228.6 ± 1.3 kg/m3
- mass density (321.34 K, 19896 kPa): 1234.67 ± 1.4 kg/m3
- mass density (321.7 K, 51336 kPa): 1251.33 ± 1.4 kg/m3
- mass density (322.86 K, 1202 kPa): 1221.53 ± 1.3 kg/m3
- mass density (330.07 K, 40113 kPa): 1239.07 ± 1.4 kg/m3
- mass density (330.33 K, 60665 kPa): 1250.61 ± 1.4 kg/m3
- mass density (330.45 K, 29706 kPa): 1233.91 ± 1.4 kg/m3
- mass density (330.66 K, 50504 kPa): 1244.49 ± 1.4 kg/m3
- mass density (331.61 K, 20974 kPa): 1227.76 ± 1.3 kg/m3
- mass density (331.62 K, 10028 kPa): 1220.82 ± 1.3 kg/m3
- mass density (332.5 K, 1153.4 kPa): 1214.09 ± 1.3 kg/m3
- mass density (339.16 K, 49816 kPa): 1238.32 ± 1.4 kg/m3
- mass density (339.45 K, 59226 kPa): 1243.78 ± 1.4 kg/m3
- mass density (340.07 K, 39808 kPa): 1233.11 ± 1.3 kg/m3
- mass density (340.31 K, 30074 kPa): 1227.04 ± 1.3 kg/m3
- mass density (341.51 K, 9933.5 kPa): 1213.37 ± 1.3 kg/m3
- mass density (341.52 K, 20038 kPa): 1220.02 ± 1.3 kg/m3
- mass density (342.34 K, 977.2 kPa): 1206.6 ± 1.3 kg/m3
- mass density (348.25 K, 58008 kPa): 1237.59 ± 1.4 kg/m3
- mass density (349.94 K, 49966 kPa): 1232.3 ± 1.3 kg/m3
- mass density (350.06 K, 39798 kPa): 1226.25 ± 1.3 kg/m3
- mass density (351.54 K, 29910 kPa): 1219.2 ± 1.3 kg/m3
- mass density (351.77 K, 10055 kPa): 1205.85 ± 1.3 kg/m3
- mass density (351.77 K, 19878 kPa): 1212.55 ± 1.3 kg/m3
